Here are results for 2 compounds from ChEMBL document CHEMBL5727957, “1H-pyrazolo[4,3-b]pyridines as PDE1 inhibitors” (2020).

Molecules are shown by their SMILES.

Test [1] addresses Dual specificity calcium/calmodulin-dependent 3',5'-cyclic nucleotide phosphodiesterase 1A (Homo sapiens, UniProt P54750). The test can be described thus: Inhibition Assay: PDE1A, PDE1B and PDE1C assays were performed as follows: the assays were performed in 60 μL samples containing a fixed amount of the PDE1 enzyme (sufficient to convert 20-25% of the cyclic nucleotide substrate), a buffer (50 mM HEPES pH 7.6; 10 mM MgCl2; 0.02% Tween20), 0.1 mg/ml BSA, 15 nM tritium labelled cAMP and varying amounts of inhibitors. Reactions were initiated by ….
Description: (§1) Reactions were initiated by addition of the cyclic nucleotide substrate, and reactions were allowed to proceed for 1 hr at room temperature before being terminated through mixing with 20 μL (0.2 mg) yttrium silicate SPA beads (PerkinElmer).

Test [2] concerns the target Dual specificity calcium/calmodulin-dependent 3',5'-cyclic nucleotide phosphodiesterase 1C (Homo sapiens, UniProt Q14123). Described as above.
Description: as §1

Dual specificity calcium/calmodulin-dependent 3',5'-cyclic nucleotide phosphodiesterase 1C, sequence (Q14123 whole entry): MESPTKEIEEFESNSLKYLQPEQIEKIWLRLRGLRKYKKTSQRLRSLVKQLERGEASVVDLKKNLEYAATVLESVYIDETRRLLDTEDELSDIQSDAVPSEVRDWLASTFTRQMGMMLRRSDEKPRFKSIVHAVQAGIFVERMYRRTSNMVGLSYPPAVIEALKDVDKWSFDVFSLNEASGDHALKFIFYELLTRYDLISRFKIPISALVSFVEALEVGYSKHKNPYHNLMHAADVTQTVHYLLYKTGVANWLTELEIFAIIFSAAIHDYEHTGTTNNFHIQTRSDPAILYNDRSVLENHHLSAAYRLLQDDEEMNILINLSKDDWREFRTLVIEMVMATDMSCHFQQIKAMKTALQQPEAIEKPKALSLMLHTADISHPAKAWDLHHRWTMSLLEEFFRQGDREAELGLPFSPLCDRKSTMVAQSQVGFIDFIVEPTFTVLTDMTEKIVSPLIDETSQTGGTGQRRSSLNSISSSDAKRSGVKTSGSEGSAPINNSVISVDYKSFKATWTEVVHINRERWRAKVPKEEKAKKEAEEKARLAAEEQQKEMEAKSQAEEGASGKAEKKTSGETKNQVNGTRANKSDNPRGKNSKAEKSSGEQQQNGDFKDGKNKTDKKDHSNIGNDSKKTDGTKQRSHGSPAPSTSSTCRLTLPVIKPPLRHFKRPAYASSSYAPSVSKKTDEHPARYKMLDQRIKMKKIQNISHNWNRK
Dual specificity calcium/calmodulin-dependent 3',5'-cyclic nucleotide phosphodiesterase 1A, sequence (P54750 whole entry): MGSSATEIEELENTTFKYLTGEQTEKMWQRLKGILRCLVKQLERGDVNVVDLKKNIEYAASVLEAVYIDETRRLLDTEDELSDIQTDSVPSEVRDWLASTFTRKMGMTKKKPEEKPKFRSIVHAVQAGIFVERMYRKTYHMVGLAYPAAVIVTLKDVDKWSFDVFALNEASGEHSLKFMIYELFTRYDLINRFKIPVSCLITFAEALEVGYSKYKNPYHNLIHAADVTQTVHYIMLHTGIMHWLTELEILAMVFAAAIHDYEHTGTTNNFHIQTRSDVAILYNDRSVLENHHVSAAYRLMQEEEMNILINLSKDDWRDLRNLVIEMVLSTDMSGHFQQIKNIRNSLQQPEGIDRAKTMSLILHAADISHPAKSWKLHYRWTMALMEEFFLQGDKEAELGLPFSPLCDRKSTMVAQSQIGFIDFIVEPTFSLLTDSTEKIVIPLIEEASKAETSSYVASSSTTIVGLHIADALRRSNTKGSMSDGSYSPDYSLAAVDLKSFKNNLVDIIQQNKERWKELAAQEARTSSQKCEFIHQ

Take `CCOc1ncccc1-c1cc(NCc2cccc3ocnc23)c2c(n1)c(C)nn2C(C)C`: the IC50 came out at 14 nM in test [1] and 39 nM in test [2].

Consider `CCOc1ncccc1-c1cc(NCc2cccn3c(C)nnc23)c2c(n1)c(C)nn2C(C)C`, for which the figures for the IC50 in test [1] and in test [2] were 3 nM and 6.1 nM, respectively.

A word on the IC50: it is the concentration needed to halve the response being measured.
